Data as given in patent US7759345B2, “Antitumoral derivatives of ET-743” (priority 2001, dated 2010).
Read-outs that look alike come from different tables or passages of the source.

Key:
P-388 = assay: Inhibition of cell growth by counting cells, P-388; format: cell-based, mouse; conditions: three days of incubation, read-out: IC50 (molar) P-388
In short: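 Mouse P-388 lymphoid neoplasm suspension cells seeded at 1×10^4 cells/well in EMEM 5% FCS containing graded sample concentrations, in duplicate alongside drug-free growth controls. Cells counted by Coulter counter; % growth vs untreated gives dose-response curves, IC50 = concentration producing 50% growth inhibition.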

A-549 = assay: Inhibition of cell growth by counting cells, A-549; format: cell-based, human; conditions: three days of incubation, read-out: IC50 (molar) A-549
In short: (§1)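 Human tumor cells were seeded at 1×10^4 cells per well in EMEM with 5% FCS containing graded compound concentrations, in duplicate, and incubated three days at 37° C, 5% CO2. Cells were then trypsinized and counted electronically; IC50 came from dose-response curves of percent growth versus drug-free controls.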

HT-29 = assay: Inhibition of cell growth by counting cells, HT-29; format: cell-based, human; conditions: three days of incubation, read-out: IC50 (molar) HT-29
In short: as §1

MEL-28 = assay: Inhibition of cell growth by counting cells, MEL-28; format: cell-based, human; conditions: three days of incubation, read-out: IC50 (molar) MEL-28
In short: as §1

DU-145 = assay: Inhibition of cell growth by counting cells, DU-145; format: cell-based, human; conditions: read-out: IC50 (molar) DU-145
Experimental: 1°.—Inhibition of Cell Growth by Counting Cells.
This form of the assay employs 24 well multidishes of 16 mm diameter (Bergeron, 1984; Schroeder, 1981). The tumor cell lines employed are: P-388 (ATCC CCL 46), suspension culture of a lymphoid neoplasm from a DBA/2 mouse; A-549 (ATCC CCL 185), monolayer culture of a human lung carcinoma; HT-29 (ATCC HTB-38), monolayer culture of a human colon carcinoma; MEL-28 (ATCC HTB-72), monolayer culture of a human melanoma and DU-145 (ATCC HTB-81), monolayer culture of a human prostate carcinoma.
Cells were maintained, in logarithmic phase of growth in Eagle's Minimum Essential Medium, with Earle's Balanced Salts, with non-essential amino acids, with 2.0 mM L-Glutamine, without sodium bicarbonate (EMEM/neaa), supplemented with 10% Fetal Calf Serum (FCS), 10^−2 M. sodium bicarbonate and 0.1 U/l penicillin G+0.1 g/l streptomycin sulfate. For the experiments, cells are harvested from subconfluent cultures using trypsin and resuspended in fresh medium before plating.
A-549, HT-29, MEL-28 and DU-145 cells were seeded into 16 mm diameter wells at 1×10^4 cells per well in 1 ml aliquots of EMEM 5% FCS containing different concentrations of the sample to be tested. A separate set of cultures without drug was seeded as control of growth, to ensure that cells remained in exponential phase of growth. All determinations are carrying out in duplicate. After three days of incubation at 37° C., 5% CO2 in a 98% humid atmosphere cells were stained with 0.1% crystal violet. An approximately IC50 was determined by comparing the growth in wells with drug to the growth in wells control.
For quantifying the activity, after the incubation time, cells are trypsinized and counted in a Coulter Counter ZM. All counts (net cells per well), represent the average of duplicate wells. % G, percent of growth relative to cultures without drug. The results of these assays are used to generate dose-response curves from which more precise IC50 values are determined (sample concentration which produces 50% cell growth inhibition).
Obtained results may predict the usefulness of a certain drug as a potential cancer treatment. For this technique, compounds which show IC50 values smaller than 1 μg/ml are selected to continue with further studies. IC50's data allow to predict that not only could a drug be cystostatic, but also it could have a potential in terms of tumor reduction.

[1] = Homo sapiens, DU-145, 72 h, three days of incubation

Row | SMILES | IC50 (P-388; Mus musculus, P388, 72 h) | IC50 (A-549; Homo sapiens, A549, 72 h) | IC50 (HT-29; Homo sapiens, HT-29, 72 h) | IC50 (MEL-28; Homo sapiens, SK-MEL-28, 72 h) | IC50 (DU-145; [1]) | IC50 (DU-145; Homo sapiens, DU-145, 72 h) | IC50 (P-388) | IC50 (A-549) | IC50 (HT-29) | IC50 (MEL-28) | IC50 (DU-145; three days of incubation)
1 | COc1cc2c(cc1O)CCN[C@]21CS[C@@H]2c3c(OC(C)=O)c(C)c4c(c3[C@H](COC1=O)N1C2[C@H]2c3c(cc(C)c(OC)c3OC(=O)OC(C)(C)C)C[C@@H]([C@@H]1C#N)N2C)OCO4 (stereo partly shown) [Compound 47] | 1.15 nM | 1.15 nM | 1.15 nM | 1.15 nM | 1.15 nM | – | – | – | – | – | –
2 | C=CCOc1cc2c(cc1OC)[C@@]1(CS[C@@H]3c4c(O)c(C)c5c(c4[C@H](COC1=O)N1C3[C@H]3c4c(cc(C)c(OC)c4OCC=C)C[C@@H]([C@@H]1C#N)N3C)OCO5)NCC2 (stereo partly shown) [Compound 50] | 124 nM | 124 nM | 124 nM | 124 nM | 124 nM | – | – | – | – | – | –
3 | CCCCCCCC(=O)Oc1c(C)c2c(c3c1[C@H]1SC[C@]4(NCCc5cc(O)c(OC)cc54)C(=O)OC[C@@H]3N3C1[C@H]1c4c(cc(C)c(OC)c4O)C[C@@H]([C@@H]3O)N1C)OCO2 (stereo partly shown) [Compound 168] | 0.591 nM | 0.591 nM | 0.591 nM | 0.591 nM | 0.591 nM | – | – | – | – | – | –
4 | COc1cc2c(cc1OC(C)=O)CCN[C@]21CS[C@@H]2c3c(OC(C)=O)c(C)c4c(c3[C@H](COC1=O)N1C2[C@H]2c3c(cc(C)c(OC)c3O)C[C@@H]([C@@H]1C#N)N2C(=O)OC(C)(C)C)OCO4 (stereo partly shown) [Compound 191] | 1.11 nM | 1.11 nM | 1.11 nM | 1.11 nM | 1.11 nM | – | – | – | – | – | –
5 | CCCCCCCCCCCCCCCC(=O)Oc1cc2c(cc1OC)[C@@]1(CS[C@@H]3c4c(OC(C)=O)c(C)c5c(c4[C@H](COC1=O)N1C3[C@@H]3N[C@@H](Cc4cc(C)c(OC)c(OC(=O)CCCCCCCCCCCCCCC)c43)[C@@H]1C#N)OCO5)NCC2 (stereo partly shown) [Compound 208] | 8110 nM | 8110 nM | 8110 nM | 8110 nM | 8110 nM | – | – | – | – | – | –
6 | COc1cc2c(cc1OC(=O)OCc1ccccc1)CCN[C@]21CS[C@@H]2c3c(OC(C)=O)c(C)c4c(c3[C@H](COC1=O)N1C2[C@H]2c3c(cc(C)c(OC)c3OC(=O)OCc3ccccc3)C[C@@H]([C@@H]1C#N)N2C)OCO4 (stereo partly shown) [Compound 28] | 9.62 nM | 9.62 nM | 9.62 nM | 9.62 nM | 9.62 nM | – | – | – | – | – | –
7 | CCCOc1cc2c(cc1OC)[C@@]1(CS[C@@H]3c4c(OC(C)=O)c(C)c5c(c4[C@H](COC1=O)N1C3[C@H]3c4c(cc(C)c(OC)c4OCCC)C[C@@H]([C@@H]1O)N3C)OCO5)NCC2 (stereo partly shown) [Compound 89] | 591 nM | 591 nM | 591 nM | 591 nM | 591 nM | – | – | – | – | – | –
8 | CCCCCCCCCCCCCCCC(=O)Oc1cc2c(cc1OC)[C@@]1(CS[C@@H]3c4c(OC(C)=O)c(C)c5c(c4[C@H](COC1=O)N1C3[C@H]3c4c(cc(C)c(OC)c4OC(=O)CCCCCCCCCCCCCCC)C[C@@H]([C@@H]1C#N)N3C)OCO5)NCC2 (stereo partly shown) [Compound 17] | 80.2 nM | 80.2 nM | 80.2 nM | 80.2 nM | 80.2 nM | – | – | – | – | – | –
9 | CCCC(=O)Oc1cc2c(cc1OC)[C@@]1(CS[C@@H]3c4c(OC(C)=O)c(C)c5c(c4[C@H](COC1=O)N1C3[C@H]3c4c(cc(C)c(OC)c4O)C[C@@H]([C@@H]1C#N)N3C(=O)OC(C)(C)C)OCO5)NCC2 (stereo partly shown) [Compound 192] | 5.39 nM | 5.39 nM | 5.39 nM | 5.39 nM | – | 5.39 nM | – | – | – | – | –
10 | CCCCCCCC(=O)Oc1c(C)c2c(c3c1[C@H]1SC[C@]4(NCCc5cc(O)c(OC)cc54)C(=O)OC[C@@H]3N3C1[C@H]1c4c(cc(C)c(OC)c4O)C[C@@H]([C@@H]3C#N)N1C)OCO2 (stereo partly shown) [Compound 144] | 1.17 nM | 1.17 nM | 1.17 nM | 1.17 nM | 1.17 nM | – | – | – | – | – | –
11 | COc1cc2c(cc1OCc1ccccc1)CCN[C@]21CS[C@@H]2c3c(OC(C)=O)c(C)c4c(c3[C@H](COC1=O)N1C2[C@H]2c3c(cc(C)c(OC)c3O)C[C@@H]([C@@H]1O)N2C)OCO4 (stereo partly shown) [Compound 71] | 0.588 nM | 0.588 nM | 0.588 nM | 0.588 nM | 0.588 nM | – | – | – | – | – | –
12 | COc1cc2c(cc1OC(=O)CCCCC1SCC3NC(=O)NC31)CCNC21CSC2c3c(OC(C)=O)c(C)c4c(c3C(COC1=O)N1C(C#N)C3Cc5cc(C)c(OC)c(O)c5C(C21)N3C)OCO4 (stereo not shown) [Compound 19] | – | – | – | – | – | – | 0.502 nM | 0.502 nM | 0.502 nM | 0.502 nM | 0.502 nM
13 | CCCCCCCC(=O)Oc1cc2c(cc1OC)[C@@]1(CS[C@@H]3c4c(OC(C)=O)c(C)c5c(c4[C@H](COC1=O)N1C3[C@@H]3N[C@@H](Cc4cc(C)c(OC)c(OC(=O)CCCCCCC)c43)[C@@H]1C#N)OCO5)NCC2 (stereo partly shown) [Compound 206] | 49.6 nM | 49.6 nM | 49.6 nM | 49.6 nM | 49.6 nM | – | – | – | – | – | –
14 | COc1cc2c(cc1OC(=O)CCCCC1SCC3NC(=O)NC31)CCNC21CSC2c3c(OC(C)=O)c(C)c4c(c3C(COC1=O)N1C(C#N)C3Cc5cc(C)c(OC)c(OC(=O)CCCCC6SCC7NC(=O)NC76)c5C(C21)N3C)OCO4 (stereo not shown) [Compound 20] | – | – | – | – | – | – | 8.18 nM | 8.18 nM | 8.18 nM | 8.18 nM | 8.18 nM
15 | C=CCOc1cc2c(cc1OC)[C@@]1(CS[C@@H]3c4c(OC(C)=O)c(C)c5c(c4[C@H](COC1=O)N1C3[C@H]3c4c(cc(C)c(OC)c4OCC=C)C[C@@H]([C@@H]1O)N3C)OCO5)NCC2 (stereo partly shown) [Compound 90] | 11.9 nM | 11.9 nM | 11.9 nM | 11.9 nM | 11.9 nM | – | – | – | – | – | –
16 | C=CCOC(=O)NC(CSCC1c2ccccc2-c2ccccc21)C(=O)Oc1cc2c(cc1OC)[C@@]1(CS[C@@H]3c4c(OC(C)=O)c(C)c5c(c4[C@H](COC1=O)N1C3[C@H]3c4c(cc(C)c(OC)c4O)C[C@@H]([C@@H]1C#N)N3C)OCO5)NCC2 (stereo partly shown) [Compound 18] | 0.441 nM | 0.441 nM | 0.441 nM | 0.441 nM | 0.441 nM | – | – | – | – | – | –
17 | COc1cc2c(cc1OC(=O)OC(C)(C)C)CCN[C@]21CS[C@@H]2c3c(OC(C)=O)c(C)c4c(c3[C@H](COC1=O)N1C2[C@H]2c3c(cc(C)c(OC)c3O)C[C@@H]([C@@H]1C#N)N2C)OCO4 (stereo partly shown) [Compound 4] | 0.115 nM | 0.115 nM | 0.115 nM | 0.115 nM | 0.115 nM | – | – | – | – | – | –
18 | CCCCCCCCCCCCCCCC(=O)Oc1c(C)c2c(c3c1[C@H]1SC[C@]4(NCCc5cc(OC(=O)OC(C)(C)C)c(OC)cc54)C(=O)OC[C@@H]3N3C1[C@H]1c4c(cc(C)c(OC)c4O)C[C@@H]([C@@H]3C#N)N1C)OCO2 (stereo partly shown) [Compound 121] | 469 nM | 469 nM | 469 nM | 469 nM | 469 nM | – | – | – | – | – | –
19 | CCCC(=O)Oc1c(C)c2c(c3c1[C@H]1SC[C@]4(NCCc5cc(OC(=O)OC(C)(C)C)c(OC)cc54)C(=O)OC[C@@H]3N3C1[C@H]1c4c(cc(C)c(OC)c4O)C[C@@H]([C@@H]3C#N)N1C)OCO2 (stereo partly shown) [Compound 111] | 1.11 nM | 1.11 nM | 1.11 nM | 1.11 nM | – | 1.11 nM | – | – | – | – | –
20 | CCOc1cc2c(cc1OC)[C@@]1(CS[C@@H]3c4c(OC(C)=O)c(C)c5c(c4[C@H](COC1=O)N1C3[C@H]3c4c(cc(C)c(OC)c4OCC)C[C@@H]([C@@H]1C#N)N3C)OCO5)NCC2 (stereo partly shown) [Compound 38] | 12.1 nM | 12.1 nM | 12.1 nM | 12.1 nM | – | 12.1 nM | – | – | – | – | –
